Laboratory results taken from ChEMBL document CHEMBL5385880, “Design, synthesis and evaluation of the novel chalcone derivatives with 2,2-dimethylbenzopyran as HIF-1 inhibitors that possess anti-angiogenic potential” (Eur J Med Chem, 2023).
pIC50: −log10 of the molar value. Values belong to the molecule of their own block, whether it stands above or below them. The source made the active and inactive calls. The calls are words filed in the database; no cut-off is given here.

Legend:
[1] = test system: T47D; assay: Cytotoxicity activity against human T47D cells; type: functional, cell-based
[2] = Apparent volume of distribution in Sprague-Dawley rat at 20 mg/kg, iv administered as single dose measured upto 6 hrs by HPLC analysis; type: ADME, organism-based; settings: in vivo, read-out: Vz
[3] = AUC (0 to t) in Sprague-Dawley rat at 20 mg/kg, iv administered as single dose measured upto 6 hrs by HPLC analysis; type: ADME, organism-based; parameters: dose 20 mg/kg, time < 6 hrs, route iv; settings: in vivo
[4] = test system: Mus musculus; assay: Anti-angiogenesis activity in VEGF stimulated C57/bl6 mouse implanted with matrigel assessed as appearance of hemoglobin content in matrigel plug at 1.25 to 20 uM measured after 10 days; type: functional, organism-based; settings: dose 1.25-20 µM, time 10.0 day
[5] = AUC (0 to infinity) in Sprague-Dawley rat at 20 mg/kg, iv administered as single dose measured upto 6 hrs by HPLC analysis; type: ADME, organism-based; parameters: time < 6 hrs, dose 20 mg/kg, route iv; settings: in vivo
[6] = Metabolic stability in Sprague-Dawley rat liver microsomes at 100 ug/ml measured after 30 mins in presence of NADPH generating system by HPLC analysis; type: ADME, Microsome; settings: at 100 µg/mL, read-out: Stability
[7] = Tmax in Sprague-Dawley rat at 20 mg/kg, iv administered as single dose measured upto 6 hrs by HPLC analysis; type: ADME, organism-based; settings: in vivo
[8] = Metabolic stability in Sprague-Dawley rat liver microsomes at 100 ug/ml measured after 120 mins in presence of NADPH generating system by HPLC analysis; type: ADME, Microsome; settings: at 100 µg/mL, read-out: Stability
[9] = Metabolic stability in Sprague-Dawley rat liver microsomes at 100 ug/ml measured after 60 mins in presence of NADPH generating system by HPLC analysis; type: ADME, Microsome; settings: at 100 µg/mL, read-out: Stability
[10] = test system: HUVEC; assay: Cytotoxicity against human HUVEC cells assessed as reduction in cell growth at 10 uM incubated for 48 hrs by CCK-8 method; type: toxicity, cell-based
[11] = test system: A549; assay: Antimigratory activity in human A549 cells assessed as decrease in cell migration at 4 uM incubated for 24 hrs by wound healing assay; type: functional, cell-based
[12] = Metabolic stability in Sprague-Dawley rat liver microsomes at 100 ug/ml measured after 10 mins in presence of NADPH generating system by HPLC analysis; type: ADME, Microsome; settings: at 100 µg/mL, read-out: Stability
[13] = Plasma protein binding in Sprague-Dawley rat assessed as free fraction by equilibrium dialysis analysis; type: ADME, cell-free
[14] = Subchronic toxicity in Kunming mouse assessed as effect on body weight at 50 mg/kg administered via oral gavage measured upto 10 days; type: organism-based; settings: in vivo, 240 h, time < 10 day
[15] = Metabolic stability in Sprague-Dawley rat liver microsomes assessed as half life at 100 ug/ml measured upto 120 mins in presence of NADPH generating system by HPLC analysis; type: ADME, Microsome; settings: dose 100 µg/ml
[16] = test system: A549; assay: Inhibition of VEGF induced cell invasion in human A549 cells measured after 24 hrs by calcein-AM staining transwell invasion assay; type: functional, cell-based; settings: dose 0-4 µM
[17] = Subchronic toxicity in Kunming mouse assessed as drug tolerance at 50 mg/kg administered via oral gavage measured upto 10 days; type: organism-based; settings: in vivo, 240 h, time < 10 day
[18] = Cytotoxicity against human HUVEC cells assessed as reduction in cell growth incubated for 48 hrs by CCK-8 method; type: toxicity, cell-based
[19] = organism: Mus musculus; assay: Anti-angiogenesis activity in VEGF stimulated C57/bl6 mouse assessed as formation of new blood vessels at 20 uM measured after 10 days; type: functional, organism-based; settings: time 10.0 day
[20] = Subchronic toxicity in Kunming mouse assessed as adverse events at 50 mg/kg administered via oral gavage measured upto 10 days; type: organism-based; settings: in vivo, 240 h, time < 10 day
[21] = Half life in Sprague-Dawley rat at 20 mg/kg, iv administered as single dose measured upto 6 hrs by HPLC analysis; type: ADME, organism-based; settings: in vivo
[22] = Clearance in Sprague-Dawley rat at 20 mg/kg, iv administered as single dose measured upto 6 hrs by HPLC analysis; type: ADME, organism-based; settings: in vivo
[23] = Subchronic toxicity in Kunming mouse assessed as effect on apparent behavior problem at 50 mg/kg administered via oral gavage measured upto 10 days; type: organism-based; settings: in vivo, 240 h, time < 10 day
[24] = test system: A549; assay: Inhibition of cell invasion in human A549 cells at 0 to 4 uM measured after 24 hrs by calcein-AM staining transwell invasion assay; type: functional, cell-based; settings: dose 0-4 µM
[25] = test system: HUVEC; assay: Antiangiogenic activity in HUVEC assessed as inhibition of VEGF-induced tube formation measured after 12 hrs by matrigel based analysis; type: functional, cell-based; settings: Homo sapiens, dose 0-8 µM
[26] = organism: Mus musculus; assay: Anti-angiogenesis activity in VEGF stimulated C57/bl6 mouse assessed as decrease in number of blood vessels at 1.25 to 20 uM measured after 10 days; type: functional, organism-based; settings: dose 1.25-20 µM, time 10.0 day
[27] = test system: A549; assay: Cytotoxicity against human A549 cells assessed as reduction in cell growth incubated for 48 hrs by CCK-8 method; type: functional, cell-based
[28] = test system: A549; assay: Cytotoxicity against human A549 cells assessed as reduction in cell growth at 4 uM incubated for 48 hrs by CCK-8 method; type: functional, cell-based
[29] = Cmax in Sprague-Dawley rat at 20 mg/kg, iv administered as single dose measured upto 6 hrs by HPLC analysis; type: ADME, organism-based; parameters: dose 20 mg/kg, time < 6 hrs, route iv; settings: in vivo
[30] = Subchronic toxicity in Kunming mouse assessed as side effects at 50 mg/kg administered via oral gavage measured upto 10 days; type: organism-based; settings: in vivo, 240 h, time < 10 day

Compound: COc1ccc([C@@H](O)[C@@H](C)Oc2ccc([C@H]3O[C@H](c4ccc(O[C@H](C)[C@H](O)c5ccc(OC)c(OC)c5)c(OC)c4)[C@H](C)[C@H]3C)cc2OC)cc1OC
pIC50 [1]: 8.52

Vd [2]: 5.59 L
AUC(0-t) at 6 h [3]: 5.27 µM·h
AUC(0-inf) [5]: 8.88 µM·h
remaining at 0.5 h, 100 ug/ml [6]: 77%
Tmax [7]: 1.98 min
remaining at 2 h, 100 ug/ml [8]: 51%
remaining at 1 h, 100 ug/ml [9]: 60%
remaining at 10 min, 100 ug/ml [12]: 90%
fraction unbound [13]: 0.88
half-life at 100 ug/ml [15]: 138 min
half-life [21]: 98.4 min
clearance [22]: 39.5 mL/min
Cmax [29]: 7.06 µM
Compound: COc1ccc(/C=C/C(=O)c2ccc3c(c2O)C=CC(C)(C)O3)cc1OCCCN1CCCC1
Activity [4]: Active
Activity [10]: Non-Toxic
Activity [11]: Active
Activity [14]: Non-Toxic
inhibition [16]: Dose-Dependent Effect
Activity [17]: Non-Toxic
IC50 at 48 h [18]: 19.6 µM
IC20 at 48 h ([18]; time 48 hrs): 10.6 µM
Activity [19]: inactive
Activity [20]: Non-Toxic
Activity [23]: Non-Toxic
inhibition [24]: Active
Activity [25]: Dose-Dependent Effect
Activity [26]: Active
pIC50 ([27]; A549, 48 h): 5.05
IC20 ([27]; A549, time 48 hrs): 4.19 µM
Activity [28]: inactive
Activity [30]: Non-Toxic
